# ChEMBL document CHEMBL1135380, “Synthesis and structure-activity relationship of 2-(aminoalkyl)-2,3,3a,8-tetrahydrodibenzo[c,f]isoxazolo[2,3-a]azepine derivatives: a novel series of 5-HT(2A/2C) receptor antagonists. Part 1” (Bioorg Med Chem Lett, 2002)
# pIC50: −log10 of the molar value.
# How the values were obtained:
# [1] = biological target: T1, 5-hydroxytryptamine receptor 2C (Rattus norvegicus) (UniProt P08909); assay: In vivo activity in rat mCPP challenge test following p.o. administration.; format: functional, organism-based
# T1 sequence (whole entry): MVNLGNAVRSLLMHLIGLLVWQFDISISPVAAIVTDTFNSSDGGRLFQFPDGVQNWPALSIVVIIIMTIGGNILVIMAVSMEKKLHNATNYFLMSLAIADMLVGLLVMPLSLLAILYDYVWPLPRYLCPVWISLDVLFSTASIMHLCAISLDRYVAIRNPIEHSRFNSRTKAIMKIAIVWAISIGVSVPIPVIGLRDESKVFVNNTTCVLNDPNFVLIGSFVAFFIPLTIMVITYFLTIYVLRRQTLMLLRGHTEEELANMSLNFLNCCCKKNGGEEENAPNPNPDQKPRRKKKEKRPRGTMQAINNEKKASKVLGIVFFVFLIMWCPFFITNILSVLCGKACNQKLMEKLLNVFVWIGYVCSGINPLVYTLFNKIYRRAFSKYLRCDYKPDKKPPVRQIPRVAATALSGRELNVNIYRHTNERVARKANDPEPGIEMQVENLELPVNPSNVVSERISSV
# Histamine H1 receptor = Histamine H1 receptor (Homo sapiens, UniProt P35367); assay: Binding affinity for human cloned Histamine H1 receptor expressed in CHO cells using [3H]pyrilamine as radioligand; format: cell-based
# Rattus norvegicus = assay: In vivo activity in mCPP challenge test were performed in male Wistar rats by subcutaneous administration; format: functional
# [2] = biological target: 5-hydroxytryptamine receptor 2A (Homo sapiens, UniProt P28223); assay: biochemical; format: cell-based, L929
# Description: Binding affinity for human cloned 5-hydroxytryptamine 2A receptor expressed in L929 cells using [125I]R91150 as radioligand
# [3] = biological target: T2, 5-hydroxytryptamine receptor 2C (Homo sapiens, UniProt P28335); assay: Binding affinity for human cloned 5-hydroxytryptamine 2C receptor expressed in CHO cells using [3H]mesulergine as radioligand; format: cell-based
# T2 sequence (P28335 whole entry): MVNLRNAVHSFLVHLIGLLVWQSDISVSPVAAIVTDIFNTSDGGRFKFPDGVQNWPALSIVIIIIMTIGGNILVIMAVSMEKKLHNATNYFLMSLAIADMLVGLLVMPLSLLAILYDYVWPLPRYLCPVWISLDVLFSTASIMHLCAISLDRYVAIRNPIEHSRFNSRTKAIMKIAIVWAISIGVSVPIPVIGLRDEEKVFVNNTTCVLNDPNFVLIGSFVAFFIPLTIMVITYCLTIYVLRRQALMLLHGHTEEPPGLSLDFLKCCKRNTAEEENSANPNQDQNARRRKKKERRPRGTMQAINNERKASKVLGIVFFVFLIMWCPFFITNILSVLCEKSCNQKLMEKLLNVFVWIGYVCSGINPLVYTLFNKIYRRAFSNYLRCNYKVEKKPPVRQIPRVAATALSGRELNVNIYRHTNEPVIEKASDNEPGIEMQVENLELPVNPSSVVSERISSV
# [4] = biological target: T3, Alpha-2C adrenergic receptor (Homo sapiens, UniProt P18825); assay: Binding affinity for human cloned Alpha-2C adrenergic receptor
# T3 sequence (P18825 whole entry): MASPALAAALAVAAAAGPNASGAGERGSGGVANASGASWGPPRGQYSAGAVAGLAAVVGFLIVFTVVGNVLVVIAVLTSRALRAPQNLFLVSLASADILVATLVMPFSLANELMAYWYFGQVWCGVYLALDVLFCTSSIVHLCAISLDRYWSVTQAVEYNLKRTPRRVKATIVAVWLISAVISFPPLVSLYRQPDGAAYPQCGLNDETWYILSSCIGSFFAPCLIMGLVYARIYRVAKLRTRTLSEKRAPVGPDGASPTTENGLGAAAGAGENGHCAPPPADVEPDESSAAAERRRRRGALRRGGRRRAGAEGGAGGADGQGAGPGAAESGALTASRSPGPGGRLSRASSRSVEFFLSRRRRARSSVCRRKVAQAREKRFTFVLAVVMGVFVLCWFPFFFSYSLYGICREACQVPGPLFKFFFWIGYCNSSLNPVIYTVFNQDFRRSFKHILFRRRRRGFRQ
# D(2) dopamine receptor [5] = biological target: D(2) dopamine receptor (Homo sapiens, UniProt P14416); assay: Binding affinity for human cloned Dopamine receptor D2L
# [6] = biological target: 5-hydroxytryptamine receptor 1D (Homo sapiens, UniProt P28221); assay: Binding affinity for human cloned 5-hydroxytryptamine 1D receptor
# D(3) dopamine receptor = D(3) dopamine receptor (Homo sapiens, UniProt P35462); assay: Binding affinity for human cloned Dopamine receptor D3
# [7] = biological target: T4, Alpha-2A adrenergic receptor (Homo sapiens, UniProt P08913); assay: Binding affinity for human cloned Alpha-2A adrenergic receptor
# T4 sequence (P08913 whole entry): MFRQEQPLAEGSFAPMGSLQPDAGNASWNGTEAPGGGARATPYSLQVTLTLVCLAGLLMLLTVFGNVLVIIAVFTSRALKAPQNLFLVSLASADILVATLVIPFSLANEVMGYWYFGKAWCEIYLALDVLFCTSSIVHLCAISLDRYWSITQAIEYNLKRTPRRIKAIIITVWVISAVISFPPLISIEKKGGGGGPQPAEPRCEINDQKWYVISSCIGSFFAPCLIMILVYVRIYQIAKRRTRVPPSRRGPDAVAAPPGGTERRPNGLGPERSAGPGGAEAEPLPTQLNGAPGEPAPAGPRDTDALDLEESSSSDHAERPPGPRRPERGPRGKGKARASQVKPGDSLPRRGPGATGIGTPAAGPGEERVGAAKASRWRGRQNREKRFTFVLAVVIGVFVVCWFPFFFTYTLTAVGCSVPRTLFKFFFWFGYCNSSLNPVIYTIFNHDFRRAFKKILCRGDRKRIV
# D(2) dopamine receptor [8] = biological target: D(2) dopamine receptor (Rattus norvegicus, UniProt P61169); assay: Binding affinity for rat Dopamine receptor D2
# [9] = biological target: T5, Alpha-1A adrenergic receptor (Homo sapiens, UniProt P35348); assay: Binding affinity for human cloned Alpha-1A adrenergic receptor
# T5 sequence (P35348 whole entry): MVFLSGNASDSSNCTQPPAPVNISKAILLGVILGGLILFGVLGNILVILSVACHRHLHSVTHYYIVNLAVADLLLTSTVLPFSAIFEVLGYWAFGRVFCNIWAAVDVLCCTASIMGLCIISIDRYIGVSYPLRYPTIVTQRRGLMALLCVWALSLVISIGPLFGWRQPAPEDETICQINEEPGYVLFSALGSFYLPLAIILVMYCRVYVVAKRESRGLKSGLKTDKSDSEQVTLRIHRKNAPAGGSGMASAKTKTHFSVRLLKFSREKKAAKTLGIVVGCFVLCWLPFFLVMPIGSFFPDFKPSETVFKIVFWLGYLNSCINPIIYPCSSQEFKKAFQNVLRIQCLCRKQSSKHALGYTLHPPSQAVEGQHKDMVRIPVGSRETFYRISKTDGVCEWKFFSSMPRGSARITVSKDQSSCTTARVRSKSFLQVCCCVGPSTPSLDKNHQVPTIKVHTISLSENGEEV
# [10] = biological target: T6, 5-hydroxytryptamine receptor 1A (Homo sapiens, UniProt P08908); assay: Binding affinity for human cloned 5-hydroxytryptamine 1A receptor
# T6 sequence (P08908 whole entry): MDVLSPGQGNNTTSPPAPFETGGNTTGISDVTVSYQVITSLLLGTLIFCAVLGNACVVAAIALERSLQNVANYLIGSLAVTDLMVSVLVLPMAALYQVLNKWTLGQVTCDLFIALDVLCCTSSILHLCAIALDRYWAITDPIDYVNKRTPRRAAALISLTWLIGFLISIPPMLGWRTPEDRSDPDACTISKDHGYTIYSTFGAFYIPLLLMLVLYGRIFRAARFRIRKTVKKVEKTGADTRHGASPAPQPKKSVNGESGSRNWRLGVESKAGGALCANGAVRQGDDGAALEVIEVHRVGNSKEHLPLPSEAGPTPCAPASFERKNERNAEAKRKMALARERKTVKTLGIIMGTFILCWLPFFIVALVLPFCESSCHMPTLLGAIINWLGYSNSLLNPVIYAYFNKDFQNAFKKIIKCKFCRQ
# [11] = Rattus norvegicus, sc, read-out: ED50
# Histamine H1 receptor, sequence (P35367 whole entry): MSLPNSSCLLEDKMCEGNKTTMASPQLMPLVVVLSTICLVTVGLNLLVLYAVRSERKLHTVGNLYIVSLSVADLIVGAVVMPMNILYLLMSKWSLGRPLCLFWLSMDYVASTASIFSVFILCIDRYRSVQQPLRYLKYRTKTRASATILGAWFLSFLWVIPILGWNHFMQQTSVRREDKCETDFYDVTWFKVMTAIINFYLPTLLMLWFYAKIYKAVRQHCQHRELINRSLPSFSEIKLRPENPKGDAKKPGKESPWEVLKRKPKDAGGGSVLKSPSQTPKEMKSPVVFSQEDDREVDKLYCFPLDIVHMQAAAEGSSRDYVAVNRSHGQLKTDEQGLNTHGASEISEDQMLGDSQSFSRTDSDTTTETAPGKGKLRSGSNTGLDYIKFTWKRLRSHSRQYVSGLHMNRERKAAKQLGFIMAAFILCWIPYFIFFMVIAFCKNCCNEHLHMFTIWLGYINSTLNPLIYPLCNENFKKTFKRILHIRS
# 5-hydroxytryptamine receptor 2A, sequence (P28223 whole entry): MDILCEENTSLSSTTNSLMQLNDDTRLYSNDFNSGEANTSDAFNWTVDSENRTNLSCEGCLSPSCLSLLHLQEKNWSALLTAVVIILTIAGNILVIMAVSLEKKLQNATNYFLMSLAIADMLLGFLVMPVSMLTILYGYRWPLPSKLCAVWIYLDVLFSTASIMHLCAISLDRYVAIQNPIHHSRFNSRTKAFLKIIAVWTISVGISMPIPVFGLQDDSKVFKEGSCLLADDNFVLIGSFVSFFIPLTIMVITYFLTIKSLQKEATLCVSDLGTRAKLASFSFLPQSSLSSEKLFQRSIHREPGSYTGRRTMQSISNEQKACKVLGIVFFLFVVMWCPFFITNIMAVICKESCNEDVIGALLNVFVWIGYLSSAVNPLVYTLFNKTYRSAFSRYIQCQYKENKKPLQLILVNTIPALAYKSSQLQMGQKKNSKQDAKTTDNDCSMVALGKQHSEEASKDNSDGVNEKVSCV
# 5-hydroxytryptamine receptor 1D, sequence (P28221 whole entry): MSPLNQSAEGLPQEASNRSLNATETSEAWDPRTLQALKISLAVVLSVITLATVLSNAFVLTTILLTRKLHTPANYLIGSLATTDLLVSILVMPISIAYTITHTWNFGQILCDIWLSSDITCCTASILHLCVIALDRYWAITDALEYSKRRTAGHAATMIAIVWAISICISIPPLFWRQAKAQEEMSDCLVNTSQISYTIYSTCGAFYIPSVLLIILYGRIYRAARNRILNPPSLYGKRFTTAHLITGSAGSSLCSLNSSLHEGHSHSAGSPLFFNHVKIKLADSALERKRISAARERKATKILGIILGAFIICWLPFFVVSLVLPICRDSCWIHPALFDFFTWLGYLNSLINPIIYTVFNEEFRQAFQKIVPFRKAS
# D(2) dopamine receptor (Homo sapiens, UniProt P14416), sequence (P14416 whole entry): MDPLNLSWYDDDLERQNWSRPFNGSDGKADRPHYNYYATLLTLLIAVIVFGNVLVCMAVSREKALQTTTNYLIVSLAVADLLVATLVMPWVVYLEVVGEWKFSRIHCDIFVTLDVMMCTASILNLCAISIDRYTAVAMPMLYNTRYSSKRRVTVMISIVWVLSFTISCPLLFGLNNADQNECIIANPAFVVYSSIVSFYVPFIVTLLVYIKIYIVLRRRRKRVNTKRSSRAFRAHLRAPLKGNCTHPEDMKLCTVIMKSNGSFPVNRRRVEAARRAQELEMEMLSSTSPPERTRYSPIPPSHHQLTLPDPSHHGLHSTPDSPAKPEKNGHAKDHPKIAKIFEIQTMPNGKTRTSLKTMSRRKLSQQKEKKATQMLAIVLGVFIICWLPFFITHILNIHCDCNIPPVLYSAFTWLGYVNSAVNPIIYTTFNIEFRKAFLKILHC
# D(2) dopamine receptor (Rattus norvegicus, UniProt P61169), sequence (P61169 whole entry): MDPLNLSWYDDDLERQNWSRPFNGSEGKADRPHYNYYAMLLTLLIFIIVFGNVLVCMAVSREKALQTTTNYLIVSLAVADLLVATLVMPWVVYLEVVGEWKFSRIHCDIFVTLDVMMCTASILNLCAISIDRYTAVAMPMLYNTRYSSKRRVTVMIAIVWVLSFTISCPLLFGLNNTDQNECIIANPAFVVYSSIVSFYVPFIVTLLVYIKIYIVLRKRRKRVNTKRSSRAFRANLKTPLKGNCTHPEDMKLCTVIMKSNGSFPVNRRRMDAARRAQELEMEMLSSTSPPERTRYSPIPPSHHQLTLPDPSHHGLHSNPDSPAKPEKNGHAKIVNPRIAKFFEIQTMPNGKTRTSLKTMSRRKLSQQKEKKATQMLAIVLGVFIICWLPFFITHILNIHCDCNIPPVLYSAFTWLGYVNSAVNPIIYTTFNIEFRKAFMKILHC
# D(3) dopamine receptor, sequence (P35462 whole entry): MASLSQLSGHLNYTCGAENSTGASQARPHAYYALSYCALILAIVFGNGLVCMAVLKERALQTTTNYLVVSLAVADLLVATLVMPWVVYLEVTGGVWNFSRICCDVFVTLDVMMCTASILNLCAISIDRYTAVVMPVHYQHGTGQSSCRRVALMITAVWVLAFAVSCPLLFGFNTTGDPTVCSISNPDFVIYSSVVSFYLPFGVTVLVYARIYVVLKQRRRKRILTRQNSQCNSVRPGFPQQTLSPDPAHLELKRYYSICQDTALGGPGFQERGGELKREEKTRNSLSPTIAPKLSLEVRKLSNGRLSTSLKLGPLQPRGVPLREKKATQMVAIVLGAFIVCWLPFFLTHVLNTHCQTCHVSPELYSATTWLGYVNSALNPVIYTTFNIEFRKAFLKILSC
SMILES,ED50 [1] [mg/kg],pIC50 (Histamine H1 receptor),pIC50 [2],pIC50 [3],ED50 (Rattus norvegicus; [11]) [mg/kg],also measured
CN(C)CC1(C)CC2c3ccccc3Cc3ccccc3N2O1 (stereo in doubt; cis) [listing 1 of 2 here],> 2.5,,,,,
CN(C)CC1CC2c3ccccc3Cc3ccccc3N2O1 (trans isomer),,< 6.00,< 6.00,< 6.00,,ED50 (Rattus norvegicus): >2.5 mg/kg
CN(C)CCCC1CC2c3ccccc3Cc3ccccc3N2O1 (stereo unspecified),> 2.5,6.17,8.41,7.73,,
CN1CCN(CC2CC3c4ccccc4Cc4ccccc4N3O2)CC1 (stereo unspecified),> 2.5,,6.55,< 6.00,> 2.5,
c1ccc2c(c1)Cc1ccccc1N1OC(CN3CCCC3)CC21 (stereo unspecified),> 2.5,8.52,7.60,7.79,> 2.5,
CN(C)CC1(C)CC2c3ccccc3Cc3ccccc3N2O1 (stereo in doubt; trans) [listing 1 of 2 here],,7.21,< 6.00,6.03,> 2.5,
CN(C)CC1(C)CC2c3ccccc3Cc3ccccc3N2O1 (stereo in doubt; cis) [listing 2 of 2 here],,8.78,7.24,7.86,,
c1ccc2c(c1)CN(CC1CC3c4ccccc4Cc4ccccc4N3O1)C2 (stereo unspecified),> 2.5,< 6.00,< 6.00,< 6.00,,
c1ccc2c(c1)Cc1ccccc1N1OC(CN3CCNCC3)CC21 (stereo unspecified),> 2.5,< 6.00,< 6.00,< 6.00,,
CN(C)CCCCC1CC2c3ccccc3Cc3ccccc3N2O1 (stereo unspecified),> 2.5,< 6.00,< 6.00,< 6.00,,
Clc1cccc(N2CCN(CC3CC4c5ccccc5Cc5ccccc5N4O3)CC2)c1 (stereo unspecified),> 2.5,< 6.00,< 6.00,< 6.00,,
CN(C)CC1(C)CC2c3ccccc3Cc3ccccc3N2O1 (stereo in doubt; trans) [listing 2 of 2 here],> 2.5,,,,,
NCC1CC2c3ccccc3Cc3ccccc3N2O1 (stereo unspecified),> 2.5,6.70,7.80,8.25,,
O=C1c2ccccc2C(=O)N1CC1CC2c3ccccc3Cc3ccccc3N2O1 (stereo unspecified),> 2.5,< 6.00,< 6.00,< 6.00,,
CN1CCN2c3ccccc3Cc3ccccc3C2C1 (stereo unspecified) [MIANSERIN],2.5,,,,0.16,pIC50 [4]: 7.37; pIC50 (D(2) dopamine receptor [5]): 5.15; pIC50 [6]: 6.42
CN(C)CC1CC2c3ccccc3Oc3ccc(Cl)cc3N2O1 (stereo unspecified),> 2.5,6.99,8.72,8.42,> 2.5,
CCN(CC)CC1CC2c3ccccc3Cc3ccccc3N2O1 (stereo unspecified),2.5,7.87,7.37,7.84,,
c1ccc2c(c1)Cc1ccccc1N1OC(CN3CCOCC3)CC21 (stereo unspecified),,7.58,6.85,< 6.00,2.5,
CC(C)N(CC1CC2c3ccccc3Cc3ccccc3N2O1)C(C)C (stereo unspecified),> 2.5,6.82,< 6.00,6.49,,
CN(C)CCC1CC2c3ccccc3Cc3ccccc3N2O1 (stereo unspecified),2.5,7.08,7.04,7.43,2.5,pIC50 (D(3) dopamine receptor): < 6.00; pIC50 [7]: < 6.00; pIC50 (D(2) dopamine receptor [8]): < 6.00; pIC50 [4]: < 6.00; pIC50 (D(2) dopamine receptor [5]): 5.02; pIC50 [6]: < 6.00; pIC50 [9]: 5.72; pIC50 [10]: < 6.00
c1ccc(N2CCN(CC3CC4c5ccccc5Cc5ccccc5N4O3)CC2)cc1 (stereo unspecified),,< 6.00,< 6.00,< 6.00,,
CN(CC1CC2c3ccccc3Cc3ccccc3N2O1)C(=O)C(F)(F)F (stereo unspecified),> 2.5,< 6.00,< 6.00,6.16,,
CN(C)C(=O)C1CC2c3ccccc3Cc3ccccc3N2O1 (stereo unspecified),> 2.5,< 6.00,< 6.00,< 6.00,,
